The results in this text go back to patent publication US20120245137A1 (Zalicus Pharmaceuticals Ltd., priority 2009, published 2012).

Sequence of N-type calcium channel subunits (α1B, α2δ, and β3a) (Q00975 whole entry): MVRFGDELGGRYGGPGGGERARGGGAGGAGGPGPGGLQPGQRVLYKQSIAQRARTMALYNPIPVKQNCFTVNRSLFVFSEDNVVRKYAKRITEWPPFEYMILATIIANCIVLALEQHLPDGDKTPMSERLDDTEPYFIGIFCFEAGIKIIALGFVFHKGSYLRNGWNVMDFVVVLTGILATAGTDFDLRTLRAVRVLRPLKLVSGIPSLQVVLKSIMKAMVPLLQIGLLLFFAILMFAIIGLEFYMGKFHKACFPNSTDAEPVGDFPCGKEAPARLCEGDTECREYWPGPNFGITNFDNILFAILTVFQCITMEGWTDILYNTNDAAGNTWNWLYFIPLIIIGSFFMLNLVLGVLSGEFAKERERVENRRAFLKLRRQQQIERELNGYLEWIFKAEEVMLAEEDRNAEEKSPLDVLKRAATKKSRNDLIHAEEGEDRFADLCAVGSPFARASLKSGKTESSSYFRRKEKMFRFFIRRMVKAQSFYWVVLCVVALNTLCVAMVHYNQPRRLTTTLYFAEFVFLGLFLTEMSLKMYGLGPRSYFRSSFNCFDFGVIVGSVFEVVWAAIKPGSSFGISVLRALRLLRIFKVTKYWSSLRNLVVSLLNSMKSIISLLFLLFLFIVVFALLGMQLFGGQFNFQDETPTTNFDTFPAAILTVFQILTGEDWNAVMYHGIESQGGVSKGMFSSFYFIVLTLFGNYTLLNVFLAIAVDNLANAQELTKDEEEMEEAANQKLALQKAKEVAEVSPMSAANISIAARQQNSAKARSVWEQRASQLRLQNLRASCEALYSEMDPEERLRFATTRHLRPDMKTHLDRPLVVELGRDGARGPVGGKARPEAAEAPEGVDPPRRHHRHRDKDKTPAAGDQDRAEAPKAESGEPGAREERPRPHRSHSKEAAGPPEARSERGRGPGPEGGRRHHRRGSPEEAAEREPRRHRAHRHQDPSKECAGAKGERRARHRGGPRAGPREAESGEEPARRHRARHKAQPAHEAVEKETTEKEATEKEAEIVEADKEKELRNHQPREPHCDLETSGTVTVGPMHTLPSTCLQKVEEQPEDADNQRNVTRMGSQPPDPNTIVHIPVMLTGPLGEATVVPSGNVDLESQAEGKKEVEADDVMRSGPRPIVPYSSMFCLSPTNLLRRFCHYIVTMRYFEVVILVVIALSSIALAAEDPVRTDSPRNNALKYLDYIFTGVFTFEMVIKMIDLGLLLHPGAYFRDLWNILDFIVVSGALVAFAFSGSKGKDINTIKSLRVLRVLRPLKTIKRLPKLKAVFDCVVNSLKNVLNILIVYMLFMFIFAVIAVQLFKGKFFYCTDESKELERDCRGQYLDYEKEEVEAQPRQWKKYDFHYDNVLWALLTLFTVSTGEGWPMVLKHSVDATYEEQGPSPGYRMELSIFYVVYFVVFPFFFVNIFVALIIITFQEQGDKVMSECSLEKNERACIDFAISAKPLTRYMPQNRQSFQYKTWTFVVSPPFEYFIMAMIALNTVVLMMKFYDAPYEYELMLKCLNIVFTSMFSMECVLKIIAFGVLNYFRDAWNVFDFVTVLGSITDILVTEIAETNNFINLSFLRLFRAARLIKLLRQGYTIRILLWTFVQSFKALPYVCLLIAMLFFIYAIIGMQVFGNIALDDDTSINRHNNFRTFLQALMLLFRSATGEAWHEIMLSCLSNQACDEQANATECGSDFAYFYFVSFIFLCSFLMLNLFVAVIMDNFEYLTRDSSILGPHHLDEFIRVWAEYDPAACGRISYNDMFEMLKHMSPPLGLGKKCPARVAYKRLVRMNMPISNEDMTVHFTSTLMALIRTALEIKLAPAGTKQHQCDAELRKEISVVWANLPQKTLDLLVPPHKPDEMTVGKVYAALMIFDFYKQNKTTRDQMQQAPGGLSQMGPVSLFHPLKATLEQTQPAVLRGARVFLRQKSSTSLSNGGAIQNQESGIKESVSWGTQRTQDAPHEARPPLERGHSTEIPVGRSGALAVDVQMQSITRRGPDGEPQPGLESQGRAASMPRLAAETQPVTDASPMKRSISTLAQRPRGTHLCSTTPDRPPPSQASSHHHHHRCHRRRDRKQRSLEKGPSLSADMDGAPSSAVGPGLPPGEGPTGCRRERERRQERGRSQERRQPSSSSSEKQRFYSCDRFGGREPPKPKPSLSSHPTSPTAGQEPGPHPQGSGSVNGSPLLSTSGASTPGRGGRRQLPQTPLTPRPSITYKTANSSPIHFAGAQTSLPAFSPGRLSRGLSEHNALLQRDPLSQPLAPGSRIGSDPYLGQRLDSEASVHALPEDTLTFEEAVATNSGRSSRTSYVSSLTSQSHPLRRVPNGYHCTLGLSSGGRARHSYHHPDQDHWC
Sequence of N-type calcium channel subunits (α1B, α2δ, and β3a) (P54289 25-1103 partner): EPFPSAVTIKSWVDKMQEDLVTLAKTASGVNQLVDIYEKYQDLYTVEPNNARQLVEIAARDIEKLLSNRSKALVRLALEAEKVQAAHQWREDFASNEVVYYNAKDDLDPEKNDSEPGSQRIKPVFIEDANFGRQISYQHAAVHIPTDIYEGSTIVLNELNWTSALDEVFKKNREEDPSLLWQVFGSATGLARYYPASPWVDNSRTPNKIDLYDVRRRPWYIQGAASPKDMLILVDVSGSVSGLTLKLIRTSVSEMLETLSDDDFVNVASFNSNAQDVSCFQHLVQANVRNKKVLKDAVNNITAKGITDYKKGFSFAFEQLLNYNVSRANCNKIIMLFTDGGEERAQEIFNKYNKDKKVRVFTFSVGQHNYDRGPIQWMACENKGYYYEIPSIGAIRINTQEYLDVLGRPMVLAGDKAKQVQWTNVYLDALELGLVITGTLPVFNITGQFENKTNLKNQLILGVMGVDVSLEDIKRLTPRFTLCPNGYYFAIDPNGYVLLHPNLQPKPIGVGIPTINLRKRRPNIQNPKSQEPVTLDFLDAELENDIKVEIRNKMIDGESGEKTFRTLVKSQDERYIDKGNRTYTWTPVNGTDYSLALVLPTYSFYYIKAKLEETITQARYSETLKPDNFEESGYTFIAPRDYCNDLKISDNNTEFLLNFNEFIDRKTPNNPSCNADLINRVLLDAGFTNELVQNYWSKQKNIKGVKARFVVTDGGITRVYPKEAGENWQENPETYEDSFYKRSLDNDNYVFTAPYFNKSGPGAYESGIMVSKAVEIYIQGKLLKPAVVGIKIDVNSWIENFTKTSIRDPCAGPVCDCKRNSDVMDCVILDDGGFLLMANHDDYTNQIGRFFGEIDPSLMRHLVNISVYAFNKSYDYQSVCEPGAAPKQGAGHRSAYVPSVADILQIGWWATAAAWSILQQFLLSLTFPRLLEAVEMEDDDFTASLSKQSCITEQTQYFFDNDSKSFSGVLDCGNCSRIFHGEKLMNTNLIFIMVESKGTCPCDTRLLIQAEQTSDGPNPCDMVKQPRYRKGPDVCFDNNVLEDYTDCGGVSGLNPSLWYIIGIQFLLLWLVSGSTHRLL
Sequence of N-type calcium channel subunits (α1B, α2δ, and β3a) (P54284 whole entry partner): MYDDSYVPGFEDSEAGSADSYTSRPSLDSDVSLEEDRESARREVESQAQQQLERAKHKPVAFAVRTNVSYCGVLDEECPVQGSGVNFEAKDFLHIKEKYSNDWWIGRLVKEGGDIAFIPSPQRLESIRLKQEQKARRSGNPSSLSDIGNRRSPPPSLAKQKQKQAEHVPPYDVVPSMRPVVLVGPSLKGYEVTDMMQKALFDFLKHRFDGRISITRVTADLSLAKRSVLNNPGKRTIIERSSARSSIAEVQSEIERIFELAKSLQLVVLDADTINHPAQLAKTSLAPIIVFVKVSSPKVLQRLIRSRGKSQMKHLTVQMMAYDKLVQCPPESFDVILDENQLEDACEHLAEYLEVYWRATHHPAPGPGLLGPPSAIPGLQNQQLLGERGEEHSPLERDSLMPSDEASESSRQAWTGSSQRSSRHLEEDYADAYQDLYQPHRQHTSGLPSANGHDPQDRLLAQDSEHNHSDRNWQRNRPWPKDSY

This assay has as its target N-type calcium channel subunits (α1B, α2δ, and β3a) (Homo sapiens, UniProt Q00975). Nature of the assay: Block of Cav2.2 channel, whole cell voltage clamp, manual and PatchXpress. The conditions noted are these: Table 5; table follows Assay Example 3 (whole cell voltage clamp / PatchXpress); assay not given. It is filed as cell-based. How it is done:
Cells are grown either on poly-D-lysine coated coverglass (manual EP) or in TIS culture plates (PatchXpress). For the PatchExpress, cells are released from the flask using trypsin. In both cases, the […] solution is (in mM): 130 […], 10 EGTA, 10 HEPES, 2 MgCl2, 3 MgATP, pH 7.3 with CsOH.
Microelectrodes are fabricated from borosilicate glass and fire-polished. […] The reference electrode is a silver-silver chloride pellet. Voltages are not corrected for the liquid junction potential between the internal and external solutions and leak is subtracted using the P/n procedure. Solutions are applied to cells by bath perfusion via gravity. The experimental chamber volume is—0.2 mL. and the perfusion rate is 0.5-2 mL/min. Flow of suction through the chamber is maintained at all times. Measurement of current amplitudes is performed with […] software (HEKA Elektronik).
PatchXpress (Molecular Devices) is a 16-well whole-cell automated patch clamp device that operates asynchronously with fully integrated fluidics. […] Capacitance and series resistance compensation is automated. No correction for liquid junction potentials is employed. Leak is subtracted using the P/n procedure. Compounds are added to cells with a pipettor from a 96-well compound plate. Voltage protocols and the recording of membrane currents are performed using the PatchXpress software/hardware system. Current amplitudes are calculated with DataXpress software.
In both manual and automated patch clamp, cells are voltage clamped at […] or −90 m V and 50 ms pulses to +20 mV are applied every 15 sec (0.067 Hz). Compounds are added in escalating doses to measure % inhibition. Percent inhibition is calculated from the ratio of the curerent amplitude in the presence and absence of compound. When multiple doses are achieved per cell, IC50 values are calculated.
The IC50 is the concentration that inhibits the measured activity by half. Turning to `O=C(NC[C@H]1C[C@H](S(=O)(=O)c2cc(F)cc(C(F)(F)F)c2)C1)c1cn2cc(C(F)(F)F)ccc2n1` [Compound 393, N-(((1R,3R)-3-(3-fluoro-5-(trifluoromethyl)phenylsulfonyl)cyclobutyl)methyl)-6-(trifluoromethyl) imidazo[1,2-a]pyridine-2-carboxamide], the IC50 was determined as 1070 nM.

For `O=C(NC[C@H]1C[C@H](S(=O)(=O)c2cc(F)cc(C(F)(F)F)c2)C1)c1ccc(C(F)(F)F)cn1` [Compound 390, N-(((1R,3R)-3-(3-fluoro-5-(trifluoromethyl)phenylsulfonyl)cyclobutyl)methyl)-5-(trifluoromethyl) picolinamide], the IC50 came to 1630 nM.

As to `Cn1nc(C(F)(F)F)cc1C(=O)NC[C@]1(O)CC[C@@H](S(=O)(=O)c2cccc(C(F)(F)F)c2)CC1` [Compound 231, N-(((1S,4S)-1-hydroxy-4-(3-(trifluoromethyl)phenylsulfonyl)cyclohexyl)methyl)-1-methyl-3-(trifluoromethyl)-1H-pyrazole-5-carboxamide], the IC50 amounted to 1870 nM.

Consider `O=S(=O)(c1cccc(C(F)(F)F)c1)[C@H]1C[C@@H](c2c[nH]c(-c3ccc(C(F)(F)F)nc3)n2)C1` [Compound 446, 2-(trifluoromethyl)-5-(4-((1S,3S)-3-(3-(trifluoromethyl)phenylsulfonyl)cyclobutyl)-1H-imidazoI-2-yl)pyridine], for which the IC50 stood at 810 nM.

`O=C(CN1CCCCC1)N[C@H]1CC[C@H](CS(=O)(=O)c2cccc(C(F)(F)F)c2)CC1` [Compound 164, 2-(piperidin-1-yl)-N-((1R,4R)-4-((3-(trifluoromethyl)phenylsulfonyl)methyl)cyclohexyl)acetamide]: the IC50 worked out at 1810 nM.

Regarding `O=C(NC[C@H]1C[C@H](S(=O)(=O)c2cc(F)cc(C(F)(F)F)c2)C1)c1ccc(OC(F)(F)F)cc1` [Compound 398, N-(((1R,3R)-3-(3-fluoro-5-(trifluoromethyl)phenylsulfonyl)cyclobutyl)methyl)-4-(trifluoromethoxy)benzamide], the IC50 worked out at 740 nM.

In the case of “2-fluoro-N-((1R,4R)-4-(3- (trifluoromethyl)phenylsulfonyl) cyclohexyl)isonicotinamide [Compound 188]”, the IC50 is 5610 nM.

In the case of `O=C(NC[C@]1(O)CC[C@@H](S(=O)(=O)c2cccc(C(F)(F)F)c2)CC1)c1cc(C(F)(F)F)ccn1` [Compound 237, N-(((1S,4S)-1-hydroxy-4-(3-(trifluoromethyl)phenylsulfonyl)cyclohexyl)methyl)-4-(trifluoromethyl)picolinamide], the IC50 is 4560 nM.

For `O=C(CCC(F)(F)F)NC1CCC(S(=O)(=O)c2cccc(C(F)(F)F)c2)CC1` (centres unmarked) [Compound 12, 4,4,4-trifluoro-N-(4-(3-(trifluoromethyl)phenylsulfonyl)cyclohexyl)butanamide], the IC50 came out at 1940 nM.

`O=C(N[C@H]1CC[C@H](CS(=O)(=O)c2cccc(C(F)(F)F)c2)CC1)c1cnccc1C(F)(F)F` [Compound 169, 4-(trifluoromethyl)-N-((1R,4R)-4-((3-(trifluoromethyl)phenylsulfonyl)methyl)cyclohexyl)nicotinamide]: the IC50 was 7110 nM.

As for `O=C(NC[C@H]1C[C@H](S(=O)(=O)c2cc(F)cc(C(F)(F)F)c2)C1)c1ccc(Cl)c(OC(F)(F)F)c1` [Compound 394, 4-chloro-N-(((1R,3R)-3-(3-fluoro-5-(trifluoromethyl)phenylsulfonyl)cyclobutyl)methyl)-3-(trifluoromethoxy)benzamide], the IC50 is 510 nM.

On to `O=C(N[C@H]1CC[C@H](S(=O)(=O)c2cccc(C(F)(F)F)c2)CC1)c1ccnc(C(F)(F)F)c1` [Compound 189, 2-(trifluoromethyl)-N-((1R,4R)-4-(3-(trifluoromethyl)phenylsulfonyl)cyclohexyl)isonicotinamide], for which the IC50 is 1540 nM.

Consider `O=C(N[C@H]1CC[C@@H](S(=O)(=O)c2cccc(C(F)(F)F)c2)CC1)c1cnccc1C(F)(F)F` [Compound 195, 4-(trifluoromethyl)-N-((1S,4S)-4-(3-(trifluoromethyl)phenylsulfonyl)cyclohexyl)nicotinamide], for which the IC50 was determined as 3150 nM.

`O=C(Nc1ncccc1C(F)(F)F)[C@H]1C[C@@H](S(=O)(=O)c2cccc(C(F)(F)F)c2)C1` [Compound 414, (1S,3S)-3-(3-(trifluoromethyl)phenylsulfonyl)-N-(3-(trifluoromethyl)pyridin-2-yl)cyclobutanecarboxamide]: the IC50 amounted to 1360 nM.

Take `O=C(N[C@H]1CC[C@H](CS(=O)(=O)c2cccc(C(F)(F)F)c2)CC1)c1ccc(OCC(F)(F)F)nc1` [Compound 171, 6-(2,2,2-trifluoroethoxy)-N-((1R,4R)-4-((3-(trifluoromethyl)phenylsulfonyl)methyl)cyclohexyl)nicotinamide]: the IC50 stood at 480 nM.

Take `O=C(N[C@H]1C[C@H](S(=O)(=O)c2cccc(C(F)(F)F)c2)C1)c1ccc(F)c(Cl)c1` [Compound 225, 3-chloro-4-fluoro-N-(trans-3-(3-(trifluoromethyl)phenylsulfonyl)cyclobutyl)benzamide]: the IC50 came to 2350 nM.

Take “2-(methylsulfonyl)-6-(trifluoromethyl)- N-(((1S,3S)-3- (3-(trifluoromethyl) phenylsulfonyl)cyclobutyl) methyl)nicotinamide [Compound 382]”: the IC50 was 1710 nM.

For `O=C(N[C@H]1CC[C@H](CS(=O)(=O)c2cccc(C(F)(F)F)c2)CC1)c1nsc(Cl)c1Cl` [Compound 170, 4,5-dichloro-N-((1R,4R)-4-((3-(trifluoromethyl)phenylsulfonyl)methyl)cyclohexyl)isothiazole-3-carboxamide], the IC50 turned out to be 4920 nM.

On to `COc1cc(C(=O)NCC2(C)CCC(F)(S(=O)(=O)c3cccc(C(F)(F)F)c3)CC2)ccn1` (centres unmarked) [Compound 157, N-((4-fluoro-1-methyl-4-(3-(trifluoromethyl)phenylsulfonyl)cyclohexyl)methyl)-2-methoxyisonicotinamide], for which the IC50 amounted to 1030 nM.

For the molecule `O=C(NC[C@]1(O)CC[C@@H](S(=O)(=O)c2cccc(C(F)(F)F)c2)CC1)c1ccc(C(F)(F)F)cn1` [Compound 232, N-(((1S,4S)-1-hydroxy-4-(3-(trifluoromethyl)phenylsulfonyl)cyclohexyl)methyl)-5-(trifluoromethyl)picolinamide], the IC50 turned out to be 2660 nM.

Turning to `O=C(N[C@H]1CC[C@@H](S(=O)(=O)c2cccc(C(F)(F)F)c2)CC1)c1cc(F)cc(Cl)c1` [Compound 40, 3-chloro-5-fluoro-N-((1S,4S)-4-(3-(trifluoromethyl)phenylsulfonyl)cyclohexyl)benzamide], the IC50 turned out to be 170 nM.

On to `O=C(N[C@H]1CC[C@H](CS(=O)(=O)c2cccc(C(F)(F)F)c2)CC1)c1cncc(C(F)(F)F)c1` [Compound 177, 5-(trifluoromethyl)-N-((1R,4R)-4-((3-(trifluoromethyl)phenylsulfonyl)tmehyl)cyclohexyl)nicotinamide], for which the IC50 came out at 2060 nM.

As for `O=C(CN[C@H]1CC[C@@H](S(=O)(=O)c2cccc(C(F)(F)F)c2)CC1)N1CCOCC1` [Compound 53, 1-morpholino-2-((1S,4S)-4-(3-(trifluoromethyl)phenylsulfonyl)cyclohexylamino)ethanone], the IC50 was 4720 nM.

With `Cn1nc(C(F)(F)F)cc1C(=O)N[C@H]1C[C@H](S(=O)(=O)c2cccc(C(F)(F)F)c2)C1` [Compound 226, 1-methyl-3-(trifluoromethyl)-N-(trans-3-(3-(trifluoromethyl)phenylsulfonyl)cyclobutyl)-1H-pyrazole-5-carboxamide], the IC50 is 2150 nM.

Take `CC(C)([C@H]1C[C@H](NC(=O)c2cnc(C(F)(F)F)nc2)C1)S(=O)(=O)c1cccc(C(F)(F)F)c1` [Compound 437, 2-(trifluoromethyl)-N-((1R,3R)-3-(2-(3-(trifluoromethyl)phenylsulfonyl)propan-2-yl)cyclobutyl)pyrimidine-5-carboxamide]: the IC50 worked out at 720 nM.

On to `COc1cc(C(=O)NC[C@]2(O)CC[C@@H](S(=O)(=O)c3cccc(C(F)(F)F)c3)CC2)cc(Cl)n1` [Compound 236, 2-chloro-N-(((1S,4S)-1-hydroxy-4-(3-(trifluoromethyl)phenylsulfonyl)cyclohexyl)methyl)-6-methoxyisonicotinamide], for which the half-inhibitory concentration (IC50) is 2100 nM.

Regarding `O=C(N[C@H]1CC[C@@H](S(=O)(=O)c2cccc(C(F)(F)F)c2)CC1)C1CCOCC1` [Compound 44, N-((1S,4S)-4-(3-(trifluoromethyl)phenylsulfonyl)cyclohexyl)tetrahydro-2H-pyran-4-carboxamide], the IC50 is 5930 nM.

In the case of `Cc1nn(C)c(C)c1S(=O)(=O)NC[C@H]1C[C@H](S(=O)(=O)c2cccc(C(F)(F)F)c2)C1` [Compound 421, 1,3,5-trimethyl-N-(((1R,3R)-3-(3-(trifluoromethyl)phenylsulfonyl)cyclobutyl)methyl)-1H-pyrazole-4-sulfonamide], the IC50 came out at 5580 nM.

Turning to `O=C(N[C@H]1CC[C@H](S(=O)(=O)c2cccc(C(F)(F)F)c2)CC1)c1ccnc(Cl)c1` [Compound 181, 2-chloro-N-((1R,4R)-4-(3-(trifluoromethyl)phenylsulfonyl)cyclohexyl)isonicotinamide], the 50% inhibitory concentration (IC50) was found to be 1830 nM.
